Test results taken from patent publication US20130217702A1 (Richter Gedeon Nyrt., priority 2010, published 2013).

Legend:
[1] = target: T1, recombinant human B1 receptors (Homo sapiens, UniProt P46663); experiment: Functional assay: antagonist potency by cytosolic calcium measurement (plate reader fluorimeter) in CHO-B1 cells, agonist LysDABK; assay type: cell-based; details: CHO-B1 cells, inhibition of LysDABK (EC80)-evoked [Ca2+]i elevation; read-out: B1 func.
T1 construct: host or cells: CHO (CHO-B1)
T1 sequence (P46663 1-353): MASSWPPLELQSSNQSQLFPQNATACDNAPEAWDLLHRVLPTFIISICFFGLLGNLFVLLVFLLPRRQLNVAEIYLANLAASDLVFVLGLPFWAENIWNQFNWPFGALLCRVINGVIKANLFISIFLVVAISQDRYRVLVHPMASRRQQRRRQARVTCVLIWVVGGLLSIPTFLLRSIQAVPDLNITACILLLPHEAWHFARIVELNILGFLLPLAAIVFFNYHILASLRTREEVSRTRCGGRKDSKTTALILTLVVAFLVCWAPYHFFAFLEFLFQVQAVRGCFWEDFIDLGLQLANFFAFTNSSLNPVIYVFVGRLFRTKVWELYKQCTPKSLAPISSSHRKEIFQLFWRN
How it was run: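 IC50 is the concentration giving half-maximal inhibition of the LysDABK (EC80) calcium response, fitted from at least three experiments. CHO cells stably expressing human B1 were dye-loaded, exposed to compound for 20-25 min, then read by fluo-4 fluorescence (ΔF/F) at 37 °C.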

[2] = target: T2, human recombinant bradykinin B1 receptor (Homo sapiens, UniProt P46663); experiment: Human recombinant bradykinin B1 receptor competitive radioligand binding; details: hB1 expressed in CHO cells, [3H]-[Des-Arg10] Kallidin radioligand; read-out: B1 binding
T2 construct: host or cells: CHO cells, clone hB1-A5
T2 sequence (P46663 1-353): T1 sequence (P46663 1-353)
How it was run: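 Membranes from CHO cells expressing hB1 (20 μg protein/tube) incubated 15 min at 25° C. with [3,4-prolyl-3,4-^3H(N)]-[Des-Arg^10] Kallidin; nonspecific binding defined with 10 μM Lys-des-Arg^9-Bradykinin. Bound label collected by filtration and counted. IC50 from ≥7-point curves in triplicate; Ki by Cheng-Prusoff.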

| SMILES | IC50 [1] | Ki [2] |
| --- | --- | --- |
| CC(NC(=O)C1(NC(=O)C(F)(F)F)CC1)c1ccc(-n2c(C(=O)N3CCCC3)c(Cl)c3ccccc32)cc1 (stereo not drawn) [Example 33, 1-(2,2,2-Trifluoro-acetylamino)-cyclopropanecarboxylic acid (1-{4-[3-chloro-2-(pyrrolidine-1-carbonyl)-indol-1-yl]-phenyl}-ethyl)-amide] | 100 to 500 nM | 20 to 100 nM |
| Cc1nc(-c2c(Cl)c3ccccc3n2-c2ccc(CNC(=O)C3(NC(=O)C=Cc4ccoc4)CC3)cc2)no1 [Example 169, 1-(3-Furan-3-yl-acryloylamino)-cyclopropanecarboxylic acid 4-[3-chloro-2-(5-methyl-[1,2,4]oxadiazol-3-yl)-indol-1-yl]-benzylamide] | < 20 nM | < 20 nM |
| Cn1nnc(-c2c(Cl)c3ccccc3n2-c2ccc(CNC(=O)C3(NC(=O)c4cc(C5CC5)on4)CC3)cc2)n1 [Example 24, 5-Cyclopropyl-isoxazole-3-carboxylic acid (1-{4-[3-chloro-2-(2-methyl-2H-tetrazol-5-yl)-indol-1-yl]-benzylcarbamoyl}-cyclopropyl)-amide] | < 20 nM | < 20 nM |
| Cc1nc(-c2c(Cl)c3ccccc3n2-c2ccc(CNC(=O)C3(NC(=O)c4ccc(F)nc4)CC3)cc2)no1 [Example 99, N-(1-{4-[3-Chloro-2-(5-methyl-[1,2,4]oxadiazol-3-yl)-indol-1-yl]-benzylcarbamoyl}-cyclopropyl)-6-fluoro-nicotinamide] | < 20 nM | < 20 nM |
| N#Cc1cc2cc(Cl)ccc2n1-c1ccc(CNC(=O)C2(NC(=O)c3cncc(C(F)(F)F)c3)CC2)cc1 [Example 100, N-{1-[4-(5-Chloro-2-cyano-indol-1-yl)-benzylcarbamoyl]-cyclopropyl}-5-trifluoromethyl-nicotinamide] | < 20 nM | < 20 nM |
| Cc1ccc(C(=O)NC2(C(=O)NCc3ccc(-n4c(-c5noc(C)n5)c(Cl)c5ccccc54)cc3)CC2)cn1 [Example 154, N-(1-{4-[3-Chloro-2-(5-methyl-[1,2,4]oxadiazol-3-yl)-indol-1-yl]-benzylcarbamoyl}-cyclopropyl)-6-methyl-nicotinamide] | < 20 nM | < 20 nM |
| COc1ccc2c(c1)c(Cl)c(C#N)n2-c1ccc(CNC(=O)C2(NC(=O)c3cc(OC)no3)CC2)cc1 [Example 52, 3-Methoxy-isoxazole-5-carboxylic acid {1-[4-(3-chloro-2-cyano-5-methoxy-indol-1-yl)-benzylcarbamoyl]-cyclopropyl}-amide] | < 20 nM | < 20 nM |
| Cc1nc(-c2c(Cl)c3cc(F)ccc3n2-c2ccc(CNC(=O)C3(NC(=O)c4cccnc4F)CC3)cc2)no1 [Example 117, N-(1-{4-[3-Chloro-5-fluoro-2-(5-methyl-[1,2,4]oxadiazol-3-yl)-indol-1-yl]-benzylcarbamoyl}-cyclopropyl)-2-fluoro-nicotinamide] | < 20 nM | < 20 nM |
| COc1cc(C(=O)NC2(C(=O)NCc3ccc(-n4c(C#N)cc5cc(F)ccc54)cc3)CC2)on1 [Example 49, 3-Methoxy-isoxazole-5-carboxylic acid {1-[4-(2-cyano-5-fluoro-indol-1-yl)-benzylcarbamoyl]-cyclopropyl}-amide] | < 20 nM | < 20 nM |
| COc1cc(C(=O)NC2(C(=O)NCc3ccc(-n4c(-c5nc(C)no5)cc5ccccc54)cc3)CC2)on1 [Example 196, 3-Methoxy-isoxazole-5-carboxylic acid (1-{4-[2-(3-methyl-[1,2,4]oxadiazol-5-yl)-indol-1-yl]-benzylcarbamoyl}-cyclopropyl)-amide] | 20 to 100 nM | < 20 nM |
| COC(=O)c1c(Cl)c2ccccc2n1-c1ccc(CNC(=O)C2(NC(=O)C(F)(F)F)CC2)c(F)c1 [Example 54, 3-Chloro-1-[3-fluoro-4-({[1-(2,2,2-trifluoro-acetylamino)-cyclopropanecarbonyl]-amino}-methyl)-phenyl]-1H-indole-2-carboxylic acid methyl ester] | < 20 nM | < 20 nM |
| Cc1nc(-c2c(Cl)c3ccccc3n2-c2ccc(CNC(=O)C3(NC(=O)C4CCCC4)CC3)cc2)no1 [Example 144, Cyclopentanecarboxylic acid (1-{4-[3-chloro-2-(5-methyl-[1,2,4]oxadiazol-3-yl)-indol-1-yl]-benzylcarbamoyl}-cyclopropyl)-amide] | 20 to 100 nM | 20 to 100 nM |
| Cc1nc(-c2c(Cl)c3ccccc3n2-c2ccc(CNC(=O)C3(NC(=O)c4ccc(F)c(C(F)(F)F)c4)CC3)cc2)no1 [Example 98, N-(1-{4-[3-Chloro-2-(5-methyl-[1,2,4]oxadiazol-3-yl)-indol-1-yl]-benzylcarbamoyl}-cyclopropyl)-4-fluoro-3-trifluoromethyl-benzamide] | 20 to 100 nM | < 20 nM |
| COc1ccc2c(c1)cc(-c1nc(C)no1)n2-c1ccc(CNC(=O)C2(NC(=O)c3cncc(C(F)(F)F)c3)CC2)cc1 [Example 79, N-(1-{4-[5-Methoxy-2-(3-methyl-[1,2,4]oxadiazol-5-yl)-indol-1-yl]-benzylcarbamoyl}-cyclopropyl)-5-trifluoromethyl-nicotinamide] | < 20 nM | < 20 nM |
| Cc1nc(-c2c(Cl)c3ccccc3n2-c2ccc(CNC(=O)C3(NC(=O)c4sc(C)nc4C)CC3)cc2)no1 [Example 150, 2,4-Dimethyl-thiazole-5-carboxylic acid (1-{4-[3-chloro-2-(5-methyl-[1,2,4]oxadiazol-3-yl)-indol-1-yl]-benzylcarbamoyl}-cyclopropyl)-amide] | 20 to 100 nM | < 20 nM |
| COc1cc(C(=O)NC2(C(=O)NCc3ccc(-n4c(-c5noc(C)n5)cc5ccccc54)cn3)CC2)on1 [Example 57, 3-Methoxy-isoxazole-5-carboxylic acid [1-({5-[2-(5-methyl-[1,2,4]oxadiazol-3-yl)-indol-1-yl]-pyridin-2-ylmethyl}-carbamoyl)-cyclopropyl]-amide] | 20 to 100 nM | 20 to 100 nM |
| Cc1nc(-c2c(Cl)c3ccccc3n2-c2ccc(CNC(=O)C3(NC(=O)c4cccnc4Cl)CC3)cc2)no1 [Example 153, 2-Chloro-N-(1-{4-[3-chloro-2-(5-methyl-[1,2,4]oxadiazol-3-yl)-indol-1-yl]-benzylcarbamoyl}-cyclopropyl)-nicotinamide] | < 20 nM | < 20 nM |
| Cc1cnc(C(=O)NC2(C(=O)NCc3ccc(-n4c(-c5noc(C)n5)c(Cl)c5cc(Cl)ccc54)cc3)CC2)cn1 [Example 72, 5-Methyl-pyrazine-2-carboxylic acid (1-{4-[3,5-dichloro-2-(5-methyl-[1,2,4]oxadiazol-3-yl)-indol-1-yl]-benzylcarbamoyl}-cyclopropyl)-amide] | < 20 nM | < 20 nM |
| Cc1nc(-c2c(Cl)c3ccccc3n2-c2ccc(CNC(=O)C3(NC(=O)c4cccc(C(F)(F)F)c4)CC3)cc2)no1 [Example 177, N-(1-{4-[3-Chloro-2-(5-methyl-[1,2,4]oxadiazol-3-yl)-indol-1-yl]-benzylcarbamoyl}-cyclopropyl)-3-trifluoromethyl-benzamide] | < 20 nM | 20 to 100 nM |
| Cc1nc(-c2c(Cl)c3ccccc3n2-c2ccc(CNC(=O)C3(NC(=O)c4ccsc4)CC3)cc2)no1 [Example 167, Thiophene-3-carboxylic acid (1-{4-[3-chloro-2-(5-methyl-[1,2,4]oxadiazol-3-yl)-indol-1-yl]-benzylcarbamoyl}-cyclopropyl)-amide] | 20 to 100 nM | 20 to 100 nM |
| COC(=O)c1c(Cl)c2ccccc2n1-c1ccc(CNC(=O)C2(NC(=O)c3cc(OC)no3)CC2)cc1 [Example 11, 3-Chloro-1-{4-[({1-[(3-methoxy-isoxazole-5-carbonyl)-amino]-cyclopropane-carbonyl}-amino)-methyl]-phenyl}-1H-indole-2-carboxylic acid methyl ester] | < 20 nM | < 20 nM |
| Cc1nc(-c2c(Cl)c3ccccc3n2-c2ccc(CNC(=O)C3(NC(=O)c4ccno4)CC3)cc2)no1 [Example 134, Isoxazole-5-carboxylic acid (1-{4-[3-chloro-2-(5-methyl-[1,2,4]oxadiazol-3-yl)-indol-1-yl]-benzylcarbamoyl}-cyclopropyl)-amide] | < 20 nM | < 20 nM |
| Cc1nc(-c2c(Cl)c3ccccc3n2-c2ccc(CNC(=O)C3(NC(=O)c4cccc(F)c4)CC3)c(F)c2)no1 [Example 105, N-(1-{4-[3-Chloro-2-(5-methyl-[1,2,4]oxadiazol-3-yl)-indol-1-yl]-2-fluoro-benzylcarbamoyl}-cyclopropyl)-3-fluoro-benzamide] | < 20 nM | < 20 nM |
| C#CCCC(=O)NC1(C(=O)NCc2ccc(-n3c(-c4noc(C)n4)c(Cl)c4ccccc43)cc2)CC1 [Example 139, 1-Pent-4-ynoylamino-cyclopropanecarboxylic acid 4-[3-chloro-2-(5-methyl-[1,2,4]oxadiazol-3-yl)-indol-1-yl]-benzylamide] | < 20 nM | < 20 nM |
